Earlier results as cited in patent US20140100282A1, “INTRANASAL ADMINISTRATION OF PHARMACEUTICAL AGENTS FOR TREATMENT OF NEUROLOGICAL DISEASES” (priority 2012, published 2014).
Where two headings read alike, the source gives them in different places.

What was measured:
[1] = animal and humans
tau = details: transgenic mice
amyloid beta = details: monotherapy at doses that lead to activation of AMPK
[2] = test system: protein phosphatase 2A (PP2A); details: murine primary neurons from wild-type and human tau transgenic mice
[3] = intranasal
[4] = mouse, intravenous, autoradiography after 30 minutes

CN(C)C(=N)NC(=N)N [metformin]
absorption from the blood to the brain [1]: negligible
phosphorylation of Ser202 (tau; 100 nM): decreased phosphorylation of Ser202 slightly
phosphorylation of Ser202 (tau; 10 μM): significantly reduced
generation of amyloid beta species (amyloid beta): significantly increases
migration of glioblastoma cells (glioblastoma cells): significantly inhibited
growth of glioblastoma cells (glioblastoma cells; basal and leptin-stimulated): reduced basal and leptin-stimulated growth of glioblastoma cells in a dose-dependent manner
PP2A activity [2]: induces PP2A activity

insulin: intranasal insulin (20 and 40 IU)
cognition on Alzheimer Disease's Assessment Scale-cognitive subscale ([3]; 20 and 40 IU, compared with placebo): less decline in cognition
recall of episodic memories ([3]; 20 or 40 IU for 4 months, relative to placebo): improved recall of episodic memories
brain glucose uptake and utilization ([3]; over the 4-month period, compared with placebo): reduced decline in brain glucose uptake and utilization

NCCc1c[nH]cn1 [histamine]
penetration into the brain or spinal cord through the BBB [4]: zero penetration
